# Data from patent publication US11872210B2, “Thiol isomerases inhibitors and use thereof” (WESTERN NEW ENGLAND UNIVERSITY, priority 2017, dated 2024).
# How the values were obtained:
# ERp57 = target: T1, ERp57 (Homo sapiens, UniProt P30101); assay: Insulin-based turbidometric assay of thiol isomerase inhibitory activity (ERp57); assay type: biochemical; conditions: specificity assay, insulin turbidity
# T1 construct: purchased AbCam (Cambridge Mass.)
# T1 sequence (P30101 25-505): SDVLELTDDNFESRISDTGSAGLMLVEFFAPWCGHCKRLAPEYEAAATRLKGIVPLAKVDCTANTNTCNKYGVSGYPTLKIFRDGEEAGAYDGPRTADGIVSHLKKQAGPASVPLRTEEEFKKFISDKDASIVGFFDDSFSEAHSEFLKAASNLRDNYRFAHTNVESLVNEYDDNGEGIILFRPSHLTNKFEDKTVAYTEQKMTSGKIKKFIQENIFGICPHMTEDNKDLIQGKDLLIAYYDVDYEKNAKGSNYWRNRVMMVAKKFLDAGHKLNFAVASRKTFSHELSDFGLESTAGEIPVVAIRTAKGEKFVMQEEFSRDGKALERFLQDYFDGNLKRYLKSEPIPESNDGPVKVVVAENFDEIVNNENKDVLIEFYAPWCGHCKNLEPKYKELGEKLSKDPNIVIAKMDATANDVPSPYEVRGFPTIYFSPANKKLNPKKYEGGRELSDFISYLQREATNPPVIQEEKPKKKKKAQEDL
# human washed platelets = assay: Collagen stimulated platelet aggregation; assay type: cell-based; conditions: collagen 1 μg/mL, 3 minutes
# Protocol: Human Platelet Preparation: 50 mL of blood was drawn from drug free, consenting individuals, into a syringe containing 5 mL sodium citrate (4% w/v) and 7.5 mL warmed ACD (85 mM sodium citrate, 71 mM citric acid and 110 mM glucose). Blood was centrifuged at 102 g for 20 minutes to obtain platelet-rich plasma (PRP), which was then decanted and 104 prostacyclin (PGI2 125 μg/mL, solubilized in ethanol) added. Platelets were pelleted by centrifugation at 1413 g for 10 minutes, platelet poor plasma was discarded and the pellet resuspended in 25 mL Tyrode's-HEPES buffer (134 mM NaCl, 2.9 mM KCl, 0.34 mM Na2HPO4, 12 mM NaHCO3, 20 mM HEPES, 1 mM MgCl2 and 5 mM glucose pH 7.3), 3 mL of ACD and 10 μL PGI2 were added and then following centrifugation at 1413 g for 10 minutes, the platelet pellet was re-suspended to the appropriate cell density using Tyrode's buffer. Platelets were rested for 30 minutes at 30° C. to allow platelet responses to recover.
# Platelet Aggregation: 445 μL of washed platelets at (4×10^8 cells/mL) were incubated for 5 minutes with vehicle (0.1% (v/v) DMSO) or 54 zafirlukast or montelukast. 50 μL of collagen 1 μg/mL (final), was added and light transmission monitored for 3 minutes at 37° C. with constant stirring (1200 rpm) using an aggregometer (Chronolog, USA).
# Statistical analyses: All raw data was analyzed by 1-way ANOVA and where appropriate normalized to vehicle. GraphPad Prism was used to perform statistical analysis by ANOVA or students T test. The level of significance of p values is as follows, *p<0.05,**p<0.01, ***p<0.005. Data presented are mean+/−standard error of the mean.
# Zafirlukast inhibits platelet aggregation: Human washed platelets (4×10^8 cells/mL) were pre-treated with 0.1 μM-10 μM zafirlukast or vehicle. Platelets were stimulated with collagen 1 μg/mL and allowed to aggregate for 3 minutes. Aggregation traces representative of the response were obtained and dose responses compared.
specificity among thiol isomerases (ERp57),SMILES,"platelet aggregation, normalized to vehicle (human washed platelets; 10 μM)","inhibition at 2.5 µM (human washed platelets; Homo sapiens, Platelet, 0.05 h, 2.5 μM)","inhibition at 3.75 µM (human washed platelets; Homo sapiens, Platelet, 0.05 h, 3.75 μM)","inhibition at 5 µM (human washed platelets; Homo sapiens, Platelet, 0.05 h, 5 μM)","inhibition at 10 µM (human washed platelets; Homo sapiens, Platelet, 0.05 h, 10 μM)"
specific for ERp57,CC(C)(C=O)Cc1cc(C(C)(C)C)c(O)c(C(C)(C)C)c1 [CGP-13501],–,–,–,–,–
–,"CC(C)(O)c1ccccc1CC[C@@H](SCC1(CC(=O)O)CC1)c1cccc(/C=C/c2ccc3ccc(Cl)cc3n2)c1 [montelukast, [R-(E)]-1-[[[1-[3-[2-(7-chloro-2-quinolinyl)ethenyl]phenyl]-3-[2-(7-chloro-2-quinolinyl)ethenyl]phenyl]-3-[2-(1-hydroxy-1-methylethyl)phenyl]propyl]thio]methyl cyclopropane acetic acid]",3.99±0.800%,62.1%,83.6%,90.6%,96.1%
